Reference: patent EP0043274A2, “Antithrombotic treatment” (priority 1980, dated 1982)
Values joined by “and” are separate entries in the source; they are usually repeats but may differ in a detail not shown here. Equal values may be shown once. Where a name gives a salt, the structure may show the parent alone. Read-outs that look alike come from different tables or passages of the source.

Legend:
human plasma [1] = type: biochemical
human plasma [2] = type: biochemical; settings: for PTT(seconds) Exp. 2 A: Active Agent 0.5/ml, test sequences A and B, control 50.5 (A), 44.5 (B)
[3] = coded agents 0.5mg/ml, […], control 12.92
[4] = 0.5 mg/ml, two different days, control 42.6 / 42.10
[5] = coded agents 0.5mg/ml, […], control 43.38
[6] = amine bisulfites, control plasma 12.8 / 13.1
[7] = amine bisulfites, control plasma 13.1 / 13.0
[8] = amine bisulfites, control plasma 37.5 / 38.2
[9] = amine bisulfites, control plasma 37.8 / 39.2
[10] = in vitro, concentration not given
[11] = 0.5 mg/ml, two different days, control 13.40
[12] = amine hydrochlorides, control plasma 12.5
[13] = amine hydrochlorides, control plasma 13.0
[14] = amine hydrochlorides, control plasma 13.5
[15] = amine hydrochlorides, control plasma 31.2
[16] = amine hydrochlorides, control plasma 31.3

benzaldhyde [reference compound]
PT (effect in words) (human plasma [1]; in vitro, 0.5 mg/ml): minimal effect | PTT (effect in words) (human plasma [2]; in vitro, 0.5 mg/ml): minimal effect

O=S(O)CO [SO2, Sodium formaldehyde sulfoxalate, reference compound]
PT (human plasma [1]): 13.8 s | PT (human plasma [1]; [3]): 14.94 s | PTT sec (human plasma [2]; [4]): 45.1 (53.8) sec | PTT (human plasma [2]; [5]): 49.22 s

CN(C)C1CCCCC1 [N,N-DIMETHYL CYCLOHEXYL AMINE]
PT REPLICATIONS 1 (human plasma [1]; [6]): 18.9 | PT REPLICATIONS 2 (human plasma [1]; [6]): 20.4 | PT REPLICATIONS 3 (human plasma [1]; [7]): 19.8 | PTT REPLICATIONS 2 (human plasma [2]): 62.1 | PTT REPLICATIONS 1 (human plasma [2]; [8]): 60.1 | PTT REPLICATIONS 3 (human plasma [2]; [9]): 58.9

CCCC[N+](CCCC)(CCCC)CCCC.[Br-] [Tetrabutyl Ammonium Bromide, reference compound]
PT (effect in words) (human plasma [1]): little or no effect | PT sec. (human plasma [1]): 12.4 s | PTT (effect in words) (human plasma [2]): little or no effect | PTT sec (human plasma [2]): 38.3 s

CCN(CC)C(=S)S [SO4, Sodium diethyl dithiocarbamate, reference compound]
PT (human plasma [1]): 13.6 s | PT (human plasma [1]; [3]): 14.02 s | PTT (human plasma [2]; [4]): 48.1 s | PTT (human plasma [2]; coded agents 0.5mg/ml, mean values of 5 replications, control 43.38): 49.60 s

C1COCCN1 [MORPHOLINE]
PT REPLICATIONS 1 (human plasma [1]): 19.3 | PT REPLICATIONS 2 (human plasma [1]): 21.0 | PT REPLICATIONS 3 (human plasma [1]): 17.5 | PTT REPLICATIONS 1 (human plasma [2]): 66.8 | PTT REPLICATIONS 2 (human plasma [2]): 61.8 | PTT REPLICATIONS 3 (human plasma [2]): 51.7

C[N+](C)(C)C [Tetramethyl Ammonium Bromide, reference compound]
PT sec. (human plasma [1]): 12.5 s | PT (effect in words) (human plasma [1]; in vitro, 0.5 mg/ml): little or no effect | PTT sec (human plasma [2]; 0.5 mg/ml, human plasma, control 38.1): 38.5 s | PTT (effect in words) (human plasma [2]; in vitro, 0.5 mg/ml): little or no effect

C=CCNCC=C [DIALLYL AMINE]
PT REPLICATIONS 1 (human plasma [1]; [6]): 13.4 | PT REPLICATIONS 2 (human plasma [1]; [6]): 13.7 | PT REPLICATIONS 3 (human plasma [1]; [7]): 13.8 | PT (effect in words) (human plasma [1]; [10]): low activity | PTT REPLICATIONS 2 (human plasma [2]): 39.6 | PTT REPLICATIONS 1 (human plasma [2]; [8]): 38.8 | PTT REPLICATIONS 3 (human plasma [2]; [9]): 39.1 | PTT (effect in words) (human plasma [2]; [10]): low activity

CC(C)=O [acetone, reference compound]
PT (effect in words) (human plasma [1]; in vitro, 0.5 mg/ml): minimal effect | PTT (effect in words) (human plasma [2]; in vitro, 0.5 mg/ml): minimal effect

Na-phosphite [reference compound]
PT (human plasma [1]; [11]): 12.9 s

Ammonium Sulfite
PT (human plasma [1]): 16.08 s | PT(seconds) Exp. 1 A (human plasma [1]): 14.7 s | PT(seconds) Exp. 2 A (human plasma [1]): 16.9 s | PTT(seconds) Exp. 1 A (human plasma [2]): 56.5 s | PTT (human plasma [2]; [4]): 58.80 s | PTT(seconds) Exp. 2 A (human plasma [2]): 65.2 s

O=C(O)/C(O)=C(/O)C(=O)O [Example A3, Dihydroxymaleic acid 2 H2O, reference compound]
PT (human plasma [1]; [3]): 14.95 s | PTT (human plasma [2]; [5]): 53.00 s

Cl.NC1CCCCC1 [CYCLOHEXYL AMINE HYDROCHLORIDE, reference compound]
PT 2 (human plasma [1]; [12]): 13.6 | PT 1 (human plasma [1]; [13]): 13.8 | PT 3 (human plasma [1]; [14]): 13.5 | PTT 1 (human plasma [2]): 32.5 | PTT 3 (human plasma [2]; [15]): 34.3 | PTT 2 (human plasma [2]; [16]): 32.7

CCN(CC)CC.Cl [TRIETHYLAMINE HYDROCHLORIDE, reference compound]
PT 1 (human plasma [1]): 12.8 | PT 2 (human plasma [1]): 12.7 | PT 3 (human plasma [1]): 13.5 | PTT 1 (human plasma [2]): 32.0 | PTT 2 (human plasma [2]): 31.5 | PTT 3 (human plasma [2]): 34.5

c1ccncc1 [PYRIDINE]
PT REPLICATIONS 1 (human plasma [1]): 29.3 | PT REPLICATIONS 2 (human plasma [1]): 27.8 | PT REPLICATIONS 3 (human plasma [1]): 27.2 | PTT REPLICATIONS 1 (human plasma [2]): 80.0 | PTT REPLICATIONS 2 (human plasma [2]): 71.1 | PTT REPLICATIONS 3 (human plasma [2]): 59.3

2-octanome [Example 2-octanome, reference compound]
PT (effect in words) (human plasma [1]; in vitro, 0.5 mg/ml): minimal effect | PTT (effect in words) (human plasma [2]; in vitro, 0.5 mg/ml): minimal effect

NCCO [ETHANOL AMINE]
PT REPLICATIONS 1 (human plasma [1]; [6]): 19.3 | PT REPLICATIONS 2 (human plasma [1]; [6]): 20.5 | PT REPLICATIONS 3 (human plasma [1]; [7]): 18.4 | PTT REPLICATIONS 2 (human plasma [2]): 66.1 | PTT REPLICATIONS 1 (human plasma [2]; [8]): 65.3 | PTT REPLICATIONS 3 (human plasma [2]; [9]): 61.1

CN1CCOCC1 [4-METHYL MORPHOLINE]
PT REPLICATIONS 1 (human plasma [1]): 21.3 | PT REPLICATIONS 2 (human plasma [1]): 21.5 | PT REPLICATIONS 3 (human plasma [1]): 20.4 | PTT REPLICATIONS 1 (human plasma [2]): 63.5 | PTT REPLICATIONS 2 (human plasma [2]): 61.3 | PTT REPLICATIONS 3 (human plasma [2]): 60.6

Na Sulfide [reference compound]
PT (human plasma [1]; [11]): 21.12 s | PTT (human plasma [2]; [4]): 78.50 s

Na-hydrosulfite [reference compound]
PT (human plasma [1]; [11]): 14.4 s | PTT sec (human plasma [2]; [4]): 45.2 (39.0) sec

O=S([O-])S(=O)(=O)[O-].[Na+].[Na+] [Sodium Metabisulfite]
PT (human plasma [1]): 19.56 s | PT(seconds) Exp. 1 A (human plasma [1]): 18.5 s | PT(seconds) Exp. 2 A (human plasma [1]): 21.9 s | PTT(seconds) Exp. 1 A (human plasma [2]): 76.9 s | PTT (human plasma [2]; [4]): 77.75 s

Cl.c1ccncc1 [PYRIDINE HYDROCHLORIDE (POWDER), PYRIDINE HYDROCHLORIDE, reference compound]
PT 1 (human plasma [1]; HYDROCHLORIDE): 12.6 | PT 2 (human plasma [1]; HYDROCHLORIDE): 12.5 | PT 3 (human plasma [1]; HYDROCHLORIDE): 13.8 | PTT 1 (human plasma [2]; HYDROCHLORIDE): 30.5 | PTT 2 (human plasma [2]; HYDROCHLORIDE): 30.8 | PTT 3 (human plasma [2]; HYDROCHLORIDE): 31.1

C=CCN [ALLYL AMINE]
PT REPLICATIONS 1 (human plasma [1]; [6]): 16.1 | PT REPLICATIONS 2 (human plasma [1]; [6]): 16.0 | PT REPLICATIONS 3 (human plasma [1]; [7]): 15.6 | PTT REPLICATIONS 2 (human plasma [2]): 46.9 | PTT REPLICATIONS 1 (human plasma [2]; [8]): 47.1 | PTT REPLICATIONS 3 (human plasma [2]; [9]): 44.9

C=CCN [ALLYL AMINE HYDROCHLORIDE, reference compound]
PT 3 (human plasma [1]): 14.4 | PT 2 (human plasma [1]; [12]): 13.2 | PT 1 (human plasma [1]; [13]): 13.2 | PTT 1 (human plasma [2]): 31.6 | PTT 3 (human plasma [2]; [15]): 32.4 | PTT 2 (human plasma [2]; [16]): 30.5

cyclohexane [reference compound]
PT (effect in words) (human plasma [1]; in vitro, 0.5 mg/ml): minimal effect | PTT (effect in words) (human plasma [2]; in vitro, 0.5 mg/ml): minimal effect

Sodium Sulfite
PT (human plasma [1]): 16.38 s | PT(seconds) Exp. 1 A (human plasma [1]): 16.8 s and 16.2 s | PT(seconds) Exp. 2 A (human plasma [1]): 17.7 s | PT (human plasma [1]; [3]): 16.14 s | PTT(seconds) Exp. 1 A (human plasma [2]): 74.8 s and 66.1 s | PTT (human plasma [2]; [4]): 66.53 s | PTT(seconds) Exp. 2 A (human plasma [2]): 82.1 s and 80.7 s | PTT (human plasma [2]; [5]): 64.62 s

C=CCNCC=C.Cl [DIALLYL AMINE HYDROCHLORIDE, reference compound]
PT 2 (human plasma [1]; [12]): 13.1 | PT 1 (human plasma [1]; [13]): 12.8 | PT 3 (human plasma [1]; [14]): 13.5 | PTT 1 (human plasma [2]): 30.5 | PTT 3 (human plasma [2]; [15]): 30.4 | PTT 2 (human plasma [2]; [16]): 30.7

CC(C)(C)N [TERT-BUTYL AMINE]
PT REPLICATIONS 1 (human plasma [1]; [6]): 21.7 | PT REPLICATIONS 2 (human plasma [1]; [6]): 21.8 | PT REPLICATIONS 3 (human plasma [1]; [7]): 21.8 | PTT REPLICATIONS 2 (human plasma [2]): 68.9 | PTT REPLICATIONS 1 (human plasma [2]; [8]): 68.2 | PTT REPLICATIONS 3 (human plasma [2]; [9]): 69.0

Na2SO4 [reference compound]
PT (human plasma [1]; [11]): 13.6 s | PTT (human plasma [2]; [4]): 44.2 s

Nc1ccccc1 [ANILINE]
PT REPLICATIONS 1 (human plasma [1]; [6]): 16.0 | PT REPLICATIONS 2 (human plasma [1]; [6]): 16.9 | PT REPLICATIONS 3 (human plasma [1]; [7]): 16.0 | PTT REPLICATIONS 2 (human plasma [2]): 44.9 | PTT REPLICATIONS 1 (human plasma [2]; [8]): 45.4 | PTT REPLICATIONS 3 (human plasma [2]; [9]): 42.9

O=S([O-])S(=O)(=O)[O-].[K+].[K+] [Potassium Metabisulfite]
PT (human plasma [1]): 18.76 s | PT(seconds) Exp. 1 A (human plasma [1]): 18.3 s and 20.4 s | PT(seconds) Exp. 2 A (human plasma [1]): 22.0 s | PT (human plasma [1]; [3]): 19.34 s | PTT(seconds) Exp. 1 A (human plasma [2]): 77.6 s and 91.6 s | PTT (human plasma [2]; [4]): 80.60 s | PTT(seconds) Exp. 2 A (human plasma [2]): 111.3 s and 105.2 s | PTT (human plasma [2]; [5]): 83.84 s

Cl.c1ccncc1 [PYRIDINE HYDROCHLORIDE (CRYSTALS), PYRIDINE HYDROCHLORIDE, reference compound]
PT 1 (human plasma [1]; HYDROCHLORIDE): 12.9 | PT 2 (human plasma [1]; HYDROCHLORIDE): 12.8 | PT 3 (human plasma [1]; HYDROCHLORIDE): 14.0 | PTT 1 (human plasma [2]; HYDROCHLORIDE): 31.3 | PTT 2 (human plasma [2]; HYDROCHLORIDE): 31.1 | PTT 3 (human plasma [2]; HYDROCHLORIDE): 32.2
